The values that follow are results of earlier work, collected in EP0893486B1, “Acrylic compositions for consolidation of soils and concrete in general” (Draco Italiana S.p.A., priority 1997, dated 1999).

The conditions of the data set: classification of the single monomer.
As for polyethyleneglycolmonoacrylate, the classified as result is reported as “irritants”.

In the case of `C=C(C)C(=O)OCC(CC)(COC(=O)C(=C)C)COC(=O)C(=C)C` [trimethylolpropanetrimethacrylate], the classified as entry is “irritants”.

Take polyethyleneglycol-400-diacrylate: the classified as result is “irritants”.

For “trimethylolpropanetriacrylate-ethoxylate”, the classified as result is reported as “irritants”.

As for `C=C(C)C(=O)OCCO` [2-hydroxyethylmethacrylate], the classified as result is on record as “irritants”.

Turning to polyethyleneglycol-600-dimethacrylate, the classified as entry is “irritants”.

For the compound `C=CC(=O)OCC(CC)(COCC(CC)(COC(=O)C=C)COC(=O)C=C)COC(=O)C=C` [Ditrimetbylolpropanetetraacrylate], the classified as result is “irritants”.
